In patent US9023987B2, “Cell-permeable peptide” (Seoul National University R&DB Foundation, priority 2010, dated 2015):
Ends that are not written are not given here.

Key:
[1] = test system: human mesenchymal stem cells (hMSC); experiment: Cytotoxicity / cell proliferation by quantitative BrdU assay; format: cell-based; design: dose or concentration left out as unconfirmed; details: 24, 48, and 72 hours, FIG. 6
Protocol: In order to confirm whether or not cell proliferation is affected by potential toxicity when the cell permeable peptide-bone differentiation inducing sequence conjugate and control domains are cultured with hMSC, a degree of cell proliferation was analysis by ELISA using BrdU. Since BrdU was introduced in chromosome instead of deoxy thymidine triphosphate (dTTP) at the time of DNA replication during a proliferation process of hMSC, a degree of introduction of BrdU may reflect a degree of proliferation of hMSC.
First, After 1×10^3 human Mesenchymal Stem cells (hMSC) were plated into each well of 96-well plate, the degree of introduction of BrdU, that is, the degree of proliferation of hMSC was measured using a cell proliferation ELISA kit (BrdU (colorimetry); Boehringermanheim, Germany). Simply describing this method, the cells were treated with the cell permeable peptide-bone differentiation inducing sequence conjugate synthesized by the method in Example 1 and the domains of Example 2 at a concentration of […] and cultured in medium for forming hard tissue for 24, 48, and 72 hours. […] of BrdU (5-bromo-2′-deoxyuridine) was added to each of the groups before 24 hours of each culture time and further cultured for 24 hours. […] The reaction was terminated by 1N H2SO4, and then absorbance was measured using the ELISA reader (Bio-Tek, USA) at 450 nm.

[2] = test system: human mesenchymal stem cells (hMSC); experiment: Cytotoxicity by MTT assay; format: cell-based; design: dose or concentration left out as unconfirmed; details: 24, 48, and 72 hours, FIG. 5
Protocol: In order to confirm whether or not cell proliferation is affected by potential toxicity when the cell permeable peptide-bone differentiation inducing sequence conjugate and control domains are cultured with hMSC, a 3-[4,5-dimethylthiazo-2-yl]-2,5-diphenyl tetrazolium bromide thiazolyl blue (MTT) assay method was used.
The MTT assay method is a method for measuring cytotoxicity by measuring absorbance of formazan produced as mitochondrial dehydrogenases in alive and metabolically active cells reduces MTT to indicate the absorbance as a percentage based on the control group. In this case, the measured absorbance reflects a concentration of the alive and metabolically active cells. 2,3,5-triphenyl tetrazolium chloride (TTC) is reduced to formazan in live cells. The formazan is insoluble purple color, and a respiration rate may be measured by a degree of color. The absorbance of formazan is maximal at 540 nm, and the absorbance measured at this wavelength reflects the concentration of the alive and metabolically active cells. Since a linear relationship between the absorbance and the concentration of the cells is not established when a concentration of cells in well to be measured is excessively high or low, a process of determining an optimal concentration of the cells was performed. […]

[3] = test system: human mesenchymal stem cells (hMSC); experiment: Cell permeability by fluorescence imaging (confocal scanning microscope); format: cell-based; details: FITC/fluorescence-labeled, FIG. 3A, FIG. 7
Protocol: The domains synthesized in Example 1 and Comparative Examples 1 and 2 were labeled with a fluorescent material in order to measure cell permeability. 10 equivalents of fluorescein isothiocyanate (FITC) was bound to N-terminals of the synthesized domains by using triethylamine (1 ml per 1 g of resin). The synthesis of the peptide was confirmed by measuring the molecular weight thereof through MALDI-TOF.
In order to measure the cell permeability of the cell permeable peptide-bone differentiation inducing sequence conjugate, after sterile slide glass was input in a 6-well plate and 2×10^4 human mesenchymal stem cells (hMSC) were plated in each well, the cells were cultured in a general medium for 20 hours (overnight incubation). Then the cells was cultured in an hMSC basal medium (MSCBM, LONZA, USA) containing 0.5% fetal bovine serum (FBS, GIBCO, USA) for 20 hours (overnight starvation). […] fluorescence labeled cell permeable peptide-bone differentiation inducing sequence conjugate and […] fluorescence labeled bone differentiation inducing sequence that were obtained by binding FITC (SIGMA, USA) N-terminals of the cell permeable peptide-bone differentiation inducing sequence conjugate synthesized by the method in Example 1 and the domain in Comparative Example 2 to synthesize the fluorescence label conjugate and fluorescence label domain, followed by isolation and purification, were injected into each well and washed with phosphate buffer solution (PBS) two times after 20 minutes and 80 minutes of injection. The resultants was observed using a confocal scanning microscope (IX 70, Olympus Co., Tokyo, Japan).

[4] = molecular target: T1, human-derived Smurf1 protein (Homo sapiens, UniProt Q9HCE7); experiment: Affinity to Smurf1 by surface plasmon resonance (BIACORE T100); format: binding; details: 10 mM analyte over Smurf1 coupled to CM5 chip; FIG. 2A
T1 construct: purchased Origene Technologies (Rockville, Md., USA)
T1 sequence (Q9HCE7 whole entry): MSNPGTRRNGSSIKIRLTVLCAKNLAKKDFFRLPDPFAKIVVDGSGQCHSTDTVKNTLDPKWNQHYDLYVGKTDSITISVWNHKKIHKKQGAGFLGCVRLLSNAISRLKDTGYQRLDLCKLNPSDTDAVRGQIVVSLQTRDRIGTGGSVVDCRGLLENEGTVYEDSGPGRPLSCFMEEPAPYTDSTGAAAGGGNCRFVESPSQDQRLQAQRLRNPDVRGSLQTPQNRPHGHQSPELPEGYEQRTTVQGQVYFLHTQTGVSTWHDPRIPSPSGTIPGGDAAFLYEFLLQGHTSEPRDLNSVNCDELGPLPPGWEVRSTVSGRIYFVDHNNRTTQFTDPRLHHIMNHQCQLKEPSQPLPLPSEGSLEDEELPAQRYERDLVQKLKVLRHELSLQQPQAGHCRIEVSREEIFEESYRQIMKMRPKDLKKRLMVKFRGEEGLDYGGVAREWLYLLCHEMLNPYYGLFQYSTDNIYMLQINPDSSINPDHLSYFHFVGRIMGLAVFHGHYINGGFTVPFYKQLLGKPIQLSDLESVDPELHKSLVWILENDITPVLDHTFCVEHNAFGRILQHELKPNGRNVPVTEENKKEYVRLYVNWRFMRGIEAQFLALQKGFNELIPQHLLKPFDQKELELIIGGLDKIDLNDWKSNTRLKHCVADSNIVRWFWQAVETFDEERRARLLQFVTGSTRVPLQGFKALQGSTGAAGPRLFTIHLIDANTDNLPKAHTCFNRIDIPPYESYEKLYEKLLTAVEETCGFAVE
Protocol: In order to confirm the affinity between cell permeable peptide-bone differentiation inducing sequence conjugate and Smurf1 by a chemical method, a human-derived Smurf1 protein acting as a ligand in the present experiment was purchased from Origene Technologies (Rockville, Md., USA). The protein ([…]) was coupled to a gold coated surface of a CM5 chip (BIACORE AB, Sweden) on which amino groups are bounded using an EDC/NHS kit (BIACORE AB, Sweden). (Instead of this experimental method, ‘Immobilization’ integrated into the BIACORE® T100 (BIACORE AB, Sweden) software used by the present inventors may be used). In this case, in order to find a suitable pH condition at which the protein may bind to the amino group in the CM5 chip, a method called ‘pH scouting’ was performed, thereby finding a pH condition. As a method of ‘pH scouting’, a method integrated in the BIACORE® T100 (BIACORE AB, Sweden) software used by the present inventors may be used. […]

Substance | effect on cell proliferation (BrdU, DNA synthesis ability compared with PBS) [1] | cytotoxicity (MTT, cell proliferation ability compared with PBS) [2] | intracellular fluorescence after 20 minutes (confocal) [3] | intracellular fluorescence after 80 minutes (confocal) [3] | affinity to Smurf1 [4]
GAPPPADSAP-NH2 [Comparative Example 2, GAPPPADSAP, reference compound] | did not affect the cell proliferation | did not exhibit cytotoxicity | – | – | –
YGRKKRRQRRR [TAT, reference compound] | – | – | fluorescent materials uniformly present in cytoplasm were observed | fluorescent materials densely present up to in nucleus were confirmed | –
SSRKKNPNCRRH (H4S) [Comparative Example 1] | – | – | fluorescent materials uniformly present in cytoplasm were observed | fluorescent materials densely present up to in nucleus were confirmed | 100 RU
